Laboratory results reported in patent US11498896B2 (The Broad Institute, Inc., priority 2014, dated 2022).

How the values were obtained:
human D2R/β-arrestin [1] = molecular target: T1, human D2R/β-arrestin (Homo sapiens (Human), UniProt P14416); assay: cell-based; settings: β-arrestin Antagonist, CHO-K1 cells expressing human D2R/β-arrestin; antagonist mode, quinpirole 130 nM
Procedure: (§1) Cells were prepared for assays by growing cultures for up to 2 weeks (from about 6-20 passages). A vial of frozen cells was thawed in a water bath held at 37° C. The cells were then transferred into a 50 ml tube with 10 ml growth media. The vial was rinsed with growth media and the contents transferred to the 50 ml tube. The 50 ml tube was centrifuged at 1200 rpm for 5 minutes at room temperature. […] When the cells reached about 90% confluence (approximately 3 days between passages), the cells were passaged and used for either the agonist or antagonist assays as described below.
The cells were prepared for β-arrestin assays as described above. The assays were performed using a PathHunter® β-Arrestin Detecting Kit (DiscoveRX). The cells were grown on 225 mm dishes, then washed once with 1×PBS (Cellgro), followed by digestion with 2.5 ml 1× Detachment reagent (DRX 92-0009) for approximately 2 minutes.

human D2R/β-arrestin [2] = molecular target: T1, human D2R/β-arrestin; assay: cell-based; settings: cAMP Antagonist, CHO-K1 cells expressing human D2R/β-arrestin; antagonist mode, 2.5 μM forskolin and 2.7 nM quinpirole
Procedure: as §1
The cells were prepared for Gi/cAMP assays as described above. The assays were performed using a PE Lance Ultra cAMP kit (TRF0263). The cells were grown on 225 mm dishes, then washed once with 1×PBS (Cellgro) before digestion with 2.5 ml 1× Detachment reagent (DRX 92-0009) for about 2 minutes. PBS (20 ml) was then added to the plate, and the cells were transferred to a 50 ml centrifuge tube, and centrifuged at room temperature using BD Dynac III, at 1200 rpm for 5 minutes. […] The plates were then incubated at room temperature for about 30 minutes before addition of Eu-cAMP tracer solution (10 μl, PerkinElmer) and then ULight-anti-cAMP solution (10 μl) to each well.

human D2R/β-arrestin [3] = molecular target: T1, human D2R/β-arrestin; assay: β-arrestin agonist assay (PathHunter); assay type: cell-based; settings: CHO-K1 cells expressing human D2R/β-arrestin; agonist mode
Procedure: The detection reagent (9.6 μL, Buffer:Emerald II:Galactor-Star in a 19:5:1 ratio, i.e., 14.06 mL:3.7 mL:0.74 mL=18.5 mL) was then added to the agonist plates.

human D2R/β-arrestin [4] = molecular target: T1, human D2R/β-arrestin; assay: Gi/cAMP agonist assay (Lance Ultra cAMP, forskolin); assay type: cell-based; settings: CHO-K1 cells expressing human D2R/β-arrestin; agonist mode, 2.5 μM forskolin
Procedure: Eu-cAMP tracer solution (10 μl, PerkinElmer, 360 μl of Tracer in 17.64 ml kit buffer) and ULight-anti-cAMP solution (10 μl, 120 μL antibody in 17.88 ml kit buffer) was then added to each well.

T1 sequence (P14416 whole entry): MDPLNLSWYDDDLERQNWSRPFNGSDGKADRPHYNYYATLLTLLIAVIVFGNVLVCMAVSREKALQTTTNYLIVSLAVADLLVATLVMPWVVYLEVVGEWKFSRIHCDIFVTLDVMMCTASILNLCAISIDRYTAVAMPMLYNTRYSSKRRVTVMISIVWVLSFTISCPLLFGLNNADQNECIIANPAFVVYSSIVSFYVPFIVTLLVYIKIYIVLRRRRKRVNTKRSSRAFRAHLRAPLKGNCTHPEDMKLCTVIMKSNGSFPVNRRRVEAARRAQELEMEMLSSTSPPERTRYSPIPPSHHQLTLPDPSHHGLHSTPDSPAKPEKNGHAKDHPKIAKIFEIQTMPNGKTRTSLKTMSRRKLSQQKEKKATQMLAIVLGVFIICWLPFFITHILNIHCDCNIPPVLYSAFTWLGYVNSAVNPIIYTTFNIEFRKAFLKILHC

Structure (SMILES) | IC50 (human D2R/β-arrestin [1]) | IC50 (human D2R/β-arrestin [2]) | EC50 (human D2R/β-arrestin [3]) | EC50 (human D2R/β-arrestin [4])
CC1(Oc2ccccc2)CCN(CCOc2ccccn2)CC1 [Compound 174, 2-(2-(4-methyl-4-phenoxypiperidin-1-yl)ethoxy)pyridine] | > 30000 nM | > 30000 nM | 100 to 1000 nM | < 100 nM
CC1(Oc2ccccc2)CCN(CCOc2cccc3[nH]ccc23)CC1 [Compound 175, 4-(2-(4-methyl-4-phenoxypiperidin-1-yl)ethoxy)-1H-indole] | < 100 nM | > 30000 nM | 100 to 1000 nM | < 100 nM
CC(C)C1(O)CCN(CCOc2ccccc2C(F)(F)F)CC1 [Compound 176, 4-isopropyl-1-(2-(2-(trifluoromethyl)phenoxy)ethyl)piperidin-4-ol] | 100 to 1000 nM | < 100 nM | > 30000 nM | > 30000 nM
CC1(O)CCN(C2CCCN(c3ccccc3C(F)(F)F)C2)CC1 (stereo not shown) [Compound 177, 4-methyl-1′-(2-(trifluoromethyl)phenyl)-[1,3′-bipiperidin]-4-ol] | 1000 to 10000 nM | 1000 to 10000 nM | > 30000 nM | > 30000 nM
Clc1ccc(N2CCCC23CCN(CC2COc4ccccc4O2)CC3)cc1 (stereo not shown) [Compound 178, 1-(4-chlorophenyl)-8-((2,3-dihydrobenzo[b][1,4]dioxin-2-yl)methyl)-1,8-diazaspiro[4.5]decane] | < 100 nM | < 100 nM | > 30000 nM | > 30000 nM
FC(F)(F)c1ccccc1OCCN1CCC2(CC1)Cc1ccccc1O2 [Compound 179, 1′-(2-(2-(trifluoromethyl)phenoxy)ethyl)-3H-spiro[benzofuran-2,4′-piperidine]] | 1000 to 10000 nM | 100 to 1000 nM | > 30000 nM | > 30000 nM
CC1(Oc2ccc(Cl)cc2)CCN(CCOc2cccc(F)c2)C1 (stereo not shown) [Compound 180, 3-(4-chlorophenoxy)-1-(2-(3-fluorophenoxy)ethyl)-3-methylpyrrolidine] | 1000 to 10000 nM | > 30000 nM | > 30000 nM | < 100 nM
c1ccc(OCCN2CCC3(Cc4ccccc4O3)C2)cc1 (stereo not shown) [Compound 181, 1′-(2-phenoxyethyl)-3H-spiro[benzofuran-2,3′-pyrrolidine]] | 1000 to 10000 nM | < 100 nM | > 30000 nM | > 30000 nM
CC1(Oc2ccc(Cl)cc2)CCN(CCOc2cccnc2)CC1 [Compound 182, 3-(2-(4-(4-chlorophenoxy)-4-methylpiperidin-1-yl)ethoxy)pyridine] | > 30000 nM | > 30000 nM | 100 to 1000 nM | < 100 nM
CC1(Oc2ccc(Cl)cc2)CCN(CCOc2ccncc2)CC1 [Compound 183, 4-(2-(4-(4-chlorophenoxy)-4-methylpiperidin-1-yl)ethoxy)pyridine] | 1000 to 10000 nM | > 30000 nM | 1000 to 10000 nM | 100 to 1000 nM
CC1(Oc2ccc(Cl)cc2)CCN(CCOc2ccc(C(F)(F)F)c(O)c2)CC1 [Compound 184, 5-(2-(4-(4-chlorophenoxy)-4-methylpiperidin-1-yl)ethoxy)-2-(trifluoromethyl)phenol] | 10000 to 30000 nM | > 30000 nM | > 30000 nM | 1000 to 10000 nM
CC1(Oc2ccc(Cl)cc2)CCN(CCOc2ccc(C#N)cc2)CC1 [Compound 185, 4-(2-(4-(4-chlorophenoxy)-4-methylpiperidin-1-yl)ethoxy)benzonitrile] | 10000 to 30000 nM | > 30000 nM | > 30000 nM | 1000 to 10000 nM
CC1(Oc2ccc(Cl)cc2)CCN(CCOc2cn[nH]c2)CC1 [Compound 186, 1-(2-((1H-pyrazol-4-yl)oxy)ethyl)-4-(4-chlorophenoxy)-4-methylpiperidine] | 1000 to 10000 nM | 100 to 1000 nM | 1000 to 10000 nM | 100 to 1000 nM
CC(=O)c1cc(F)ccc1OCCN1CCC(C)(Oc2ccc(Cl)cc2)CC1 [Compound 187, 1-(2-(2-(4-(4-chlorophenoxy)-4-methylpiperidin-1-yl)ethoxy)-5-fluorophenyl)ethan-1-one] | 1000 to 10000 nM | 1000 to 10000 nM | > 30000 nM | 100 to 1000 nM
COc1ccccc1OCCN1CCC(C)(Oc2ccc(Cl)cc2)CC1 [Compound 188, 4-(4-chlorophenoxy)-1-(2-(2-methoxyphenoxy)ethyl)-4-methylpiperidine] | 100 to 1000 nM | 1000 to 10000 nM | > 30000 nM | 100 to 1000 nM
COc1cc(F)c(F)cc1OCCN1CCC(C)(Oc2ccc(Cl)cc2)CC1 [Compound 189, 4-(4-chlorophenoxy)-1-(2-(4,5-difluoro-2-methoxyphenoxy)ethyl)-4-methylpiperidine] | 1000 to 10000 nM | 1000 to 10000 nM | > 30000 nM | 1000 to 10000 nM

Structure (SMILES) | IC50 (human D2R/β-arrestin [1]) | IC50 (human D2R/β-arrestin [2]) | EC50 (human D2R/β-arrestin [3]) | EC50 (human D2R/β-arrestin [4])
CC(C)Oc1ccc(F)cc1OCCN1CCC(C)(Oc2ccc(Cl)cc2)CC1 [Compound 190, 4-(4-chlorophenoxy)-1-(2-(5-fluoro-2-isopropoxyphenoxy)ethyl)-4-methylpiperidine] | 1000 to 10000 nM | 100 to 1000 nM | > 30000 nM | 100 to 1000 nM
CC(C)Oc1cc(F)ccc1OCCN1CCC(C)(Oc2ccc(Cl)cc2)CC1 [Compound 191, 4-(4-chlorophenoxy)-1-(2-(4-fluoro-2-isopropoxyphenoxy)ethyl)-4-methylpiperidine] | 1000 to 10000 nM | 100 to 1000 nM | > 30000 nM | > 30000 nM
CC(C)C1(Oc2ccc(Cl)cc2)CCN(CCOc2ccccc2C(F)(F)F)CC1 [Compound 192, 4-(4-chlorophenoxy)-4-isopropyl-1-(2-(2-(trifluoromethyl)phenoxy)ethyl)piperidine] | 1000 to 10000 nM | 100 to 1000 nM | > 30000 nM | 1000 to 10000 nM
C#CC1(Oc2ccc(Cl)cc2)CCN(CCOc2ccccc2C(F)(F)F)CC1 [Compound 193, 4-(4-chlorophenoxy)-4-ethynyl-1-(2-(2-(trifluoromethyl)phenoxy)ethyl)piperidine] | 1000 to 10000 nM | > 30000 nM | 1000 to 10000 nM | < 100 nM
C#CC1(Oc2ccccc2)CCN(CCOc2ccccc2C(F)(F)F)CC1 [Compound 194, 4-ethynyl-4-phenoxy-1-(2-(2-(trifluoromethyl)phenoxy)ethyl)piperidine] | 1000 to 10000 nM | > 30000 nM | 100 to 1000 nM | < 100 nM
CC1(Oc2ccc(Cl)cc2)CCN(CCn2cccc(C(F)(F)F)c2=O)CC1 [Compound 195, 1-(2-(4-(4-chlorophenoxy)-4-methylpiperidin-1-yl)ethyl)-3-(trifluoromethyl)pyridin-2(1H)-one] | > 30000 nM | > 30000 nM | > 30000 nM | > 30000 nM
C[C@@]1(O)C[C@H]2CC[C@@H](C1)N2CCOc1ccccc1C(F)(F)F [Compound 196, (1R,3s,5S)-3-methyl-8-(2-(2-(trifluoromethyl)phenoxy)ethyl)-8-azabicyclo[3.2.1]octan-3-ol] | 10000 to 30000 nM | 1000 to 10000 nM | > 30000 nM | > 30000 nM
CNC(=O)C1(C)CCN(CCOc2ccccc2C(F)(F)F)CC1 [Compound 198, N,4-dimethyl-1-(2-(2-(trifluoromethyl)phenoxy)ethyl)piperidine-4-carboxamide] | < 100 nM | < 100 nM | > 30000 nM | > 30000 nM
CNC(=O)C1(C)CCN(CCOc2ccccc2)CC1 [Compound 199, N, 4-dimethyl-1-(2-phenoxyethyl)piperidine-4-carboxamide] | 1000 to 10000 nM | > 30000 nM | > 30000 nM | 100 to 1000 nM
CNC(=O)C1(C)CCN(CCOc2ccccc2F)CC1 [Compound 200, 1-(2-(2-fluorophenoxy)ethyl)-N,4-dimethylpiperidine-4-carboxamide] | 1000 to 10000 nM | 100 to 1000 nM | > 30000 nM | 100 to 1000 nM
CNC(=O)C1(C)CCN(CCOc2ccccc2OC)CC1 [Compound 201, 1-(2-(2-methoxyphenoxy)ethyl)-N,4-dimethylpiperidine-4-carboxamide] | 1000 to 10000 nM | 100 to 1000 nM | > 30000 nM | > 30000 nM
CNC(=O)C1(C)CCN(CC2COc3ccccc3O2)CC1 (stereo not shown) [Compound 202, 1-((2,3-dihydrobenzo[b][1,4]dioxin-2-yl)methyl)-N,4-dimethylpiperidine-4-carboxamide] | 100 to 1000 nM | 100 to 1000 nM | > 30000 nM | < 100 nM
CC1(C(=O)NC2CC2)CCN(CC2COc3ccccc3O2)CC1 (stereo not shown) [Compound 203, N-cyclopropyl-1-((2,3-dihydrobenzo[b][1,4]dioxin-2-yl)methyl)-4-methylpiperidine-4-carboxamide] | 100 to 1000 nM | 1000 to 10000 nM | > 30000 nM | < 100 nM
CC1(C(=O)Nc2ccccc2)CCN(CC2COc3ccccc3O2)CC1 (stereo not shown) [Compound 204, 1-((2,3-dihydrobenzo[b][1,4]dioxin-2-yl)methyl)-4-methyl-N-phenylpiperidine-4-carboxamide] | 1000 to 10000 nM | 100 to 1000 nM | > 30000 nM | 100 to 1000 nM
CNCC1(C)CCN(C[C@H]2COc3ccccc3O2)CC1 [Compound 207, (S)-1-(1-((2,3-dihydrobenzo[b][1,4]dioxin-2-yl)methyl)-4-methylpiperidin-4-yl)-N-methylmethanamine] | 1000 to 10000 nM | > 30000 nM | 1000 to 10000 nM | 1000 to 10000 nM
